From the NIST ThermoML archive (doi:10.1016/j.jct.2011.02.021)
± gives the expanded uncertainty stated by the source.

Assay: molar enthalpy of vaporization or sublimation
Conditions: 298.15 K; Crystal; drop microcalorimetry

molar enthalpy	SMILES
20.7 ± 0.717 kcal/mol	Cc1cc(=O)cc(C)o1 [2,6-dimethyl-γ-pyrone]
21.8 ± 0.956 kcal/mol	CCc1occc(=O)c1O [2-ethyl-3-hydroxy-4H-pyran-4-one]
